These results are taken from patent US11534441B2, “MAP4K1 inhibitors” (Blueprint Medicines Corporation, priority 2020, dated 2022).

The target of the test is MAP4K1 (HPK1) (Homo sapiens (Human), UniProt Q92918). In words: MAP4K1 (HPK1) biochemical enzymatic activity, electrophoretic mobility shift (EZReader 2), ATP at APPKM (26 μM). An excerpt:
MAP4K1 (HPK1) and relevant off-target enzymatic activity was monitored using the Perkin Elmer electrophoretic mobility shift technology platform—the EZReader 2. […] Within the linear, steady-state phase of the kinase enzymatic reaction, the mixed pool of phosphorylated (product) and non-phosphorylated (substrate) peptides was passed through the microfluidic system of the PerkinElmer EZ Reader 2, under an applied electric potential difference. The presence of the phosphate group on the product peptide provided a difference in mass and charge between that of the substrate peptide, resulting in a separation of the substrate and product pools in the sample (Perrin et al. 2010). As the product and substrate peptide mixture passes the lasers within the instrument, these pools are detected (λex=488 nm, λent=568 nm) and resolved as separate peaks. The ratio between these peaks reflects the activity of the compound at that concentration, in that well, under those conditions.
Inhibitors were dissolved in 100% DMSO at a stock concentration of 10 mM. A 100×, 10-point, 4-fold serial dilution of each inhibitor was created in 100% DMSO either manually or on a Hamilton STAR liquid handler, starting at a relevant concentration, usually 1 mM. A volume of 0.130 μL of each concentration was transferred to the relevant wells of a 384-well plate (Greiner 781 201) in duplicate using a TTPLabtech Mosquito nano-litre dispenser. Using a Multidrop Combi, the remaining constituents of the kinase reaction were added to the 130 nL of dosed compound as follows (see table below for final reaction details):
Enzyme activity assays at the ^APPKM for ATP or 1 mM ATP: In each well of a 384-well plate, 0.1-15 nM of untreated enzyme was incubated in a total of 13 μL of buffer (100 mM HEPES pH 7.5, 0.015% Brij 35, 10 mM MgCl2, 1 mM DTT) with 1.5 μM fluorescent peptid and 20-1000 μM ATP, at 25° C., for 60-180 minutes in the presence or absence of a dosed concentration series of compound (1% DMSO final concentration). The kinase reactions were stopped by the addition of 70 μl of Stop buffer (100 mM HEPES pH 7.5, 0.015% Brij 35, 35 mM EDTA and 0.2% of Coating Reagent 3 (Caliper Lifesciences)). The plates were read on a Caliper EZReader 2 as described above.
Background: In EMSA bound probe runs differently from free probe, usually more slowly.

Sequence of MAP4K1 (HPK1) (Q92918 whole entry): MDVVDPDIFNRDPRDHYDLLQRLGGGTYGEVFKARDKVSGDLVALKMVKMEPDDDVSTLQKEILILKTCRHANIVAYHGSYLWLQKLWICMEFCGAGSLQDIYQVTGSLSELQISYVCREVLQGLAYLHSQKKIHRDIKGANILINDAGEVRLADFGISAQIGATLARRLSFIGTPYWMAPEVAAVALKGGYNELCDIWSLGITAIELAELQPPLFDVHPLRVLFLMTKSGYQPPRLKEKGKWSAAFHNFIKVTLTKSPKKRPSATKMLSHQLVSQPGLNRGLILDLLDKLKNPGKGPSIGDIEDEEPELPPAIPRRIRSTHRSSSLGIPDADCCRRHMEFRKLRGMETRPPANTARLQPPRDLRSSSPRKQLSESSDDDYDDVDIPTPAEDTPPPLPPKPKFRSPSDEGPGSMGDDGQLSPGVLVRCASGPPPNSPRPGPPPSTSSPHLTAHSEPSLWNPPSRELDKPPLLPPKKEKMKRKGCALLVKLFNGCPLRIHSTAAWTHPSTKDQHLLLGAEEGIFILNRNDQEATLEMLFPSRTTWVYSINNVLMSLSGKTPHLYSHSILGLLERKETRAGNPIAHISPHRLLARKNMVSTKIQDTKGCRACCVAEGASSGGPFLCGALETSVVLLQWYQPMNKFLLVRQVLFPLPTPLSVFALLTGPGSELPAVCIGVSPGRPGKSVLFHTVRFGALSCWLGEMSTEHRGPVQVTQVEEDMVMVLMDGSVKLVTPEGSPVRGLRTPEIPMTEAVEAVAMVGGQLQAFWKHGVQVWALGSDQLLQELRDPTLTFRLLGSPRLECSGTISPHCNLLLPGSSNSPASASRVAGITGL

On to `C[C@@H]1OC(=O)c2ccc(Nc3cc4c([C@@](C)(N)C5CC5)cnc(O[C@H]5C[C@H](O)C5)c4cn3)nc2[C@H]1C` (relative stereo) [Compound 193, (7S,8R)-2-((5-((R)-1-Amino-1-cyclopropylethyl)-8-((trans)-3-hydroxycyclobutoxy)-2,7-naphthyridin-3-yl)amino)-7,8-dimethyl-7,8-dihydro-5H-pyrano[4,3-b]pyridin-5-one and (7S,8R)-2-((5-((S)-1-amino-1-cyclopropylethyl)-8-((trans)-3-hydroxycyclobutoxy)-2,7-naphthyridin-3-yl)amino)-7,8-dimethyl-7,8-dihydro-5H-pyrano[4,3-b]pyridin-5-one], for which the concentration for half-maximal inhibition (IC50) (commonly the concentration needed to halve the response being measured) by setting is: (class designation) under 0.3 nM; (numeric value) 0.1 nM.

For `CC[C@H](F)c1nc(Nc2cc3c(C(C)(C)N)cnc(OC)c3cn2)cnc1C#N` (single isomer, unassigned) [Compound 30], the IC50 runs as follows: (class designation) 1.1 to 10 nM; (numeric value) 3.57 nM.

Turning to `CC[C@@H](F)c1nc(Nc2cc3c(C(C)(C)N)cnc(OC)c3cn2)cnc1C#N` (single isomer, unassigned) [Compound 31], the IC50 was 1.1 to 10 nM (class designation) and 5.88 nM (numeric value).

For `CC[C@](C)(N)c1cnc(OC)c2cnc(Nc3ccc4c(n3)CC(C)(C)OC4=O)cc12` (single isomer, unassigned) [Compound 62], the IC50 is 0.31 to 1 nM (class designation) and 0.55 nM (numeric value).

For `C[C@](N)(c1cnc(OC2CC2)c2cnc(Nc3ccc4c(n3)CCOC4=O)cc12)C1CC1` (single isomer, unassigned) [Compound 108], under “numeric value”, the half-maximal inhibitory concentration (IC50) was determined as 0.98 nM.

As to `C[C@@H]1OC(=O)c2ccc(Nc3cc4c(C(C)(N)CO)cnc(OC5CC5)c4cn3)nc2[C@H]1C` (single isomer, unassigned) [Compound 139, (7S,8R)-2-((5-((R)-2-Amino-1-hydroxypropan-2-yl)-8-cyclopropoxy-2,7-naphthyridin-3-yl)amino)-7,8-dimethyl-7,8-dihydro-5H-pyrano[4,3-b]pyridin-5-one or (7S,8R)-2-((5-((S)-2-amino-1-hydroxypropan-2-yl)-8-cyclopropoxy-2,7-naphthyridin-3-yl)amino)-7,8-dimethyl-7,8-dihydro-5H-pyrano[4,3-b]pyridin-5-one], the half-inhibitory concentration (IC50) reads like this: (class designation) 1.1 to 10 nM; (numeric value) 2.25 nM.

For the compound `C[C@@H]1OC(=O)c2ccc(Nc3cc4c([C@](C)(N)CO)cnc(OC5CC5)c4cn3)nc2[C@H]1C` (single isomer, unassigned) [Compound 140, (7S,8R)-2-((5-((R)-2-Amino-1-hydroxypropan-2-yl)-8-cyclopropoxy-2,7-naphthyridin-3-yl)amino)-7,8-dimethyl-7,8-dihydro-5H-pyrano[4,3-b]pyridin-5-one or (7S,8R)-2-((5-((S)-2-amino-1-hydroxypropan-2-yl)-8-cyclopropoxy-2,7-naphthyridin-3-yl)amino)-7,8-dimethyl-7,8-dihydro-5H-pyrano[4,3-b]pyridin-5-one], under “class designation”, the half-inhibitory concentration (IC50) is over 10 nM.

For the compound `CC1(C)Cc2nc(Nc3cc4c([C@](C)(N)C5CC5)cnc(OC5CC5)c4cn3)ccc2C(=O)N1` (single isomer, unassigned) [Compound 148], the IC50 (numeric value) was 0.11 nM.

For `CC1(C)Cc2nc(Nc3cc4c([C@@](C)(N)C5CC5)cnc(OC5CC5)c4cn3)ccc2C(=O)O1` (single isomer, unassigned) [Compound 153], the 50% inhibitory concentration (IC50) (numeric value) amounted to 2.61 nM.

`C[C@H](Oc1ncc(C(C)(C)N)c2cc(Nc3ccc4c(n3)CC(C)(C)OC4=O)ncc12)C(F)F` (single isomer, unassigned) [Compound 164]: the IC50 runs as follows: (class designation) 1.1 to 10 nM; (numeric value) 7.35 nM.

As for `C[C@@H](Oc1ncc(C(C)(C)N)c2cc(Nc3ccc4c(n3)CC(C)(C)OC4=O)ncc12)C(F)F` (single isomer, unassigned) [Compound 165], the IC50 (class designation) is 1.1 to 10 nM and the half-inhibitory concentration (IC50) (numeric value) was determined as 1.26 nM.

Turning to `CC[C@](C)(N)c1cnc(OCC(F)(F)F)c2cnc(Nc3ccc4c(n3)C(C)(C)OC4=O)cc12` (single isomer, unassigned) [Compound 173], the IC50 (class designation) lay within 1.1 to 10 nM and the IC50 (numeric value) was determined as 1.72 nM.

Consider `CC[C@@](C)(N)c1cnc(OCC(F)(F)F)c2cnc(Nc3ccc4c(n3)C(C)(C)OC4=O)cc12` (single isomer, unassigned) [Compound 175], for which the IC50 (class designation) is over 10 nM and the half-maximal inhibitory concentration (IC50) (numeric value) came out at 35.1 nM.

`C[C@@H](Oc1ncc(C(C)(C)N)c2cc(Nc3ccc4c(n3)CC(C)(C)OC4=O)ncc12)C(F)(F)F` (single isomer, unassigned) [Compound 179]: the 50% inhibitory concentration (IC50) (class designation) was in the range of 1.1 to 10 nM and the half-maximal inhibitory concentration (IC50) (numeric value) was 2.12 nM.

As for `C[C@H](Oc1ncc(C(C)(C)N)c2cc(Nc3ccc4c(n3)CC(C)(C)OC4=O)ncc12)C(F)(F)F` (single isomer, unassigned) [Compound 180], the IC50 reads like this: (class designation) over 10 nM; (numeric value) 15.4 nM.

Regarding `CC[C@@H](N)c1ccc(OC)c2cnc(Nc3ccc4c(n3)C3(CC3)C(C)(C)OC4=O)cc12` (single isomer, unassigned) [Compound 207, (S)-2′-((5-(1-Aminopropyl)-8-methoxyisoquinolin-3-yl)amino)-7′,7′-dimethyl-5′H,7′H-spiro[cyclopropane-1,8′-pyrano[4,3-b]pyridin]-5′-one or (R)-2′-((5-(1-aminopropyl)-8-methoxyisoquinolin-3-yl)amino)-7′,7′-dimethyl-5′H,7′H-spiro[cyclopropane-1,8′-pyrano[4,3-b]pyridin]-5′-one], the IC50 reads like this: (class designation) under 0.3 nM; (numeric value) 0.22 nM.

For the compound `COc1ncc([C@H](C)N)c2cc(Nc3ccnc(C(C)(C)F)n3)ncc12` (stereo in doubt) [Compound 1, 5-(1-Aminoethyl)-N-(2-(2-fluoropropan-2-yl)pyrimidin-4-yl)-8-methoxy-2,7-naphthyridin-3-amine], the half-maximal inhibitory concentration (IC50) reads like this: (class designation) over 10 nM; (numeric value) 21.4 nM.

Turning to `COc1ncc(C(C)(C)N)c2cc(Nc3ccnc(OC(C)C)n3)ncc12` [Compound 4], the IC50 is, setting by setting: (class designation) 0.31 to 1 nM; (numeric value) 0.42 nM.

`CNc1ncc(C(C)(C)N)c2cc(Nc3ccnc(C(C)(C)F)n3)ncc12` [Compound 6, 4-(2-Aminopropan-2-yl)-N6-(2-(2-fluoropropan-2-yl)pyrimidin-4-yl)-N1-methyl-2,7-naphthyridine-1,6-diamine]: the half-inhibitory concentration (IC50) reads like this: (class designation) 1.1 to 10 nM; (numeric value) 3.31 nM.

Consider `CNc1ncc(C(C)(C)N)c2cc(Nc3cnc(C#N)c(C(C)C)n3)ncc12` [Compound 8, 5-((5-(2-Aminopropan-2-yl)-8-(methylamino)-2,7-naphthyridin-3-yl)amino)-3-isopropylpyrazine-2-carbonitrile], for which the IC50 runs as follows: (class designation) over 10 nM; (numeric value) 11.1 nM.

For `COc1ncc(C(C)(C)N)c2cc(Nc3cnc(C#N)c(C(C)C)n3)ncc12` [Compound 10], the 50% inhibitory concentration (IC50) is 1.1 to 10 nM (class designation) and 2.73 nM (numeric value).

For the compound `CCOc1ncc(C(C)(C)N)c2cc(Nc3ccnc(C(C)(C)F)n3)ncc12` [Compound 16], the IC50 reads like this: (class designation) 1.1 to 10 nM; (numeric value) 2.5 nM.

Take `CNC(C)(C)c1cnc(OC)c2cnc(Nc3ccnc(C(C)(C)F)n3)cc12` [Compound 17, N-(2-(2-Fluoropropan-2-yl)pyrimidin-4-yl)-8-methoxy-5-(2-(methylamino)propan-2-yl)-2,7-naphthyridin-3-amine]: the IC50 was 1.1 to 10 nM (class designation) and 4.02 nM (numeric value).

As to `CC[C@@H](C)c1nc(Nc2cc3c(C(C)(C)N)cnc(OC)c3cn2)ccc1C#N` [Compound 18], the IC50 (class designation) was in the range of 0.31 to 1 nM and the IC50 (numeric value) was determined as 0.4 nM.

Regarding `COc1ncc(C(C)(C)N)c2cc(Nc3ccnc(N4CCC[C@@H]4C)n3)ncc12` [Compound 27], the IC50 is, setting by setting: (class designation) under 0.3 nM; (numeric value) 0.3 nM.

Regarding `COc1ncc(C(C)(C)N)c2cc(Nc3cnc(C#N)c(C(C)(C)F)n3)ncc12` [Compound 29], the half-maximal inhibitory concentration (IC50) was 1.1 to 10 nM (class designation) and 3.98 nM (numeric value).

On to `COc1ncc(C(C)(C)N)c2cc(Nc3cnc4c(n3)CC(C)(C)OC4=O)ncc12` [Compound 47], for which the IC50 runs as follows: (class designation) over 10 nM; (numeric value) 13.6 nM.

As for `COc1ncc(C(C)(C)N)c2cc(Nc3cnc(C#N)c(N4CCC[C@@H]4C)n3)ncc12` [Compound 49], the IC50 is, setting by setting: (class designation) 0.31 to 1 nM; (numeric value) 1.01 nM.

Take `COc1ncc(C2CCCN2)c2cc(Nc3ccc4c(n3)CC(C)(C)OC4=O)ncc12` (centres unmarked) [Compound 50, 2-((8-Methoxy-5-(pyrrolidin-2-yl)-2,7-naphthyridin-3-yl)amino)-7,7-dimethyl-7,8-dihydro-5H-pyrano[4,3-b]pyridin-5-one]: the concentration for half-maximal inhibition (IC50) is, setting by setting: (class designation) over 10 nM; (numeric value) 52.6 nM.

On to `COc1ncc(C(C)(C)N)c2cc(Nc3ccc4c(n3)[C@H]3CCC[C@H]3OC4=O)ncc12` [Compound 51], for which the IC50 is under 0.3 nM (class designation) and 0.26 nM (numeric value).
